By IC50 is commonly meant the midpoint of a concentration-inhibition curve. Read a high IC50 as weaker potency in that assay.

For the assay, the target named is SARM1 (Homo sapiens (Human), UniProt Q6SZW1). Description: ARM-SAM-TIR SARM1 IC50 assay (NADase activity, NAD+ cleavage). It counts as biochemical. As to conditions: ARM-SAM-TIR lysate 5 μg/mL, 2 h pre-incubation, 5 μM NAD+, RapidFire MS readout. As for the experimental part: This Example describes an assay of ARM-SAM-TIR NADase activity and use of this assay to measure the efficacy of compounds of Formula I to block SARM1 mediated NAD+ cleavage. This assay was optimized in such a way as to characterize the efficacy of the compounds in Formula I to inhibit SARM1 activity and to calculate an IC50 value for each compound. This assay makes use of full length SARM1, which encompasses the ARM, SAM and TIR domains.
NRK1-HEK293T cells were seeded onto 150 cm^2 plates at 20×10^6 cells per plate. The next day, the cells were transfected with 15 μg ARM-SAM-TIR expression plasmid, SEQ ID NO: 1.
The cultures were supplemented with 1 mM NR at time of transfection to minimize toxicity from ARM-SAM-TIR overexpression. […] Protein concentration was determined by the Bicinchoninic (BCA) method and used to normalize lysate concentrations.
The enzymatic assay was performed in a 384-well polypropylene plate in Dulbecco's PBS buffer in a final assay volume of 20 μL. […] The NAD+ and ADPR concentrations were analyzed by a RapidFire High Throughput Mass Spectrometry System (Agilent Technologies, Santa Clara, CA) using an API4000 triple quadrupole mass spectrometer (AB Sciex Framingham, MA).

Sequence of SARM1 (Q6SZW1 other isoform, or with tags, fused parts or gaps): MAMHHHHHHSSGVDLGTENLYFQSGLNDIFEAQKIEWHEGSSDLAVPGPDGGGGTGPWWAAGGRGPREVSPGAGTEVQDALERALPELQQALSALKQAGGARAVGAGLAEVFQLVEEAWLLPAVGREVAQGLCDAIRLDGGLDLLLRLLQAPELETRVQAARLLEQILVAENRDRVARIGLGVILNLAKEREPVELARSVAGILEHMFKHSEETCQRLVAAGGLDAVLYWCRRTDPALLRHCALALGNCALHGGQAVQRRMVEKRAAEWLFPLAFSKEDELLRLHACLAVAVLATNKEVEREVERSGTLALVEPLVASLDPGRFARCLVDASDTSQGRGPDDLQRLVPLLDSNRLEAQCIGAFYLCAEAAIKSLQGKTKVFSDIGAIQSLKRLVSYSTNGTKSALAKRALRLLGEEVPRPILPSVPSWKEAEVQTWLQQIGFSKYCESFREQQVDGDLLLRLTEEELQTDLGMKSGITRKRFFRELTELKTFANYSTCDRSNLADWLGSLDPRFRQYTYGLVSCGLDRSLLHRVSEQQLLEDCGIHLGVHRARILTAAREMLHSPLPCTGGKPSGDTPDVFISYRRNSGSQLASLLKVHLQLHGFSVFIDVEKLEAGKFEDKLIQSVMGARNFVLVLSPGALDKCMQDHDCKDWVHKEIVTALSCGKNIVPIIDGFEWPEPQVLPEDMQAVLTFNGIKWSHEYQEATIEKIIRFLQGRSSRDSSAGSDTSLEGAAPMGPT

`Clc1ccc(CCc2n[nH]c3cc(-c4ccncc4)ccc23)cc1` [Compound I-1]: the IC50 lay within 0.101 to 0.5 µM. Next, `Clc1ccc(CCc2n[nH]c3cc(-c4ccncc4)ccc23)cn1` [Compound I-2]: 0.101 to 0.5 µM.

The values are drawn from patent publication US20240051939A1, “BENZOPYRAZOLE INHIBITORS OF SARM1” (Disarm Therapeutics, Inc., priority 2020, published 2024).
